The values below come from US8637484B2, “Modulation of growth hormone receptor expression and insulin-like growth factor expression” (Antisense Therapeutic Limited, priority 2003, dated 2014).

In the oligonucleotide strings, read from the 5' end, every base follows the letter of its sugar. An asterisk marks phosphorothioate; unmarked linkages are phosphodiester. Other units and linkages are bracketed, terminal groups are in braces. A string of capitals states the bases alone. e = 2'-O-(2-methoxyethyl) (MOE); [5mC] = 5-methylcytosine; d = 2'-deoxy (DNA)

This data set has as its system human growth hormone receptor mRNA. The data set is described as follows: Inhibition of human growth hormone receptor mRNA levels in MCF7 cells, quantitative real-time PCR. Format: cell-based. Also on record: concentration or dose not given beside the values. Conditions: averages from three experiments. As for the experimental part:
The human breast carcinoma cell line MCF-7 was obtained from the American Type Culture Collection (Manassas, Va.). MCF-7 cells were routinely cultured in DMEM low glucose (Gibco/Life Technologies, Gaithersburg, Md.) supplemented with 10% fetal calf serum (Gibco/Life Technologies, Gaithersburg, Md.). Cells were routinely passaged by trypsinization and dilution when they reached 90% confluence. Cells were seeded into 96-well plates (Falcon-Primaria #3872) at a density of 7000 cells/well for use in RT-PCR analysis.
When cells reached 65-75% confluency, they were treated with oligonucleotide. For cells grown in 96-well plates, wells were washed once with 100 μL OPTI-MEM™-1 reduced-serum medium (Invitrogen Corporation, Carlsbad, Calif.) and then treated with 130 μL of OPTI-MEM™-1 containing 3.75 μg/mL LIPOFECTIN™ (Invitrogen Corporation, Carlsbad, Calif.) and the desired concentration of oligonucleotide. Cells are treated and data are obtained in triplicate. After 4-7 hours of treatment at 37° C., the medium was replaced with fresh medium. Cells were harvested 16-24 hours after oligonucleotide treatment.
Total RNA was isolated using an RNEASY 96™ kit and buffers purchased from Qiagen Inc. (Valencia, Calif.) following the manufacturer's recommended procedures. Briefly, for cells grown on 96-well plates, growth medium was removed from the cells and each well was washed with 200 μL cold PBS. 150 μL Buffer RLT was added to each well and the plate vigorously agitated for 20 seconds. 150 μL of 70% ethanol was then added to each well and the contents mixed by pipetting three times up and down. The samples were then transferred to the RNEASY 96™ well plate attached to a QIAVAC™ manifold fitted with a waste collection tray and attached to a vacuum source. Vacuum was applied for 1 minute. 500 μL of Buffer RW1 was added to each well of the RNEASY 96™ plate and incubated for 15 minutes and the vacuum was again applied for 1 minute. An additional 500 μL of Buffer RW1 was added to each well of the RNEASY 96™ plate and the vacuum was applied for 2 minutes. 1 mL of Buffer RPE was then added to each well of the RNEASY 96™ plate and the vacuum applied for a period of 90 seconds. The Buffer RPE wash was then repeated and the vacuum was applied for an additional 3 minutes. The plate was then removed from the QIAVAC™ manifold and blotted dry on paper towels. The plate was then re-attached to the QIAVAC™ manifold fitted with a collection tube rack containing 1.2 mL collection tubes. RNA was then eluted by pipetting 140 μL of RNAse free water into each well, incubating 1 minute, and then applying the vacuum for 3 minutes.
Quantitation of growth hormone receptor mRNA levels was accomplished by real-time quantitative PCR using the ABI PRISM™ 7600, 7700, or 7900 Sequence Detection System (PE-Applied Biosystems, Foster City, Calif.) according to manufacturer's instructions. This is a closed-tube, non-gel-based, fluorescence detection system which allows high-throughput quantitation of polymerase chain reaction (PCR) products in real-time. As opposed to standard PCR in which amplification products are quantitated after the PCR is completed, products in real-time quantitative PCR are quantitated as they accumulate. This is accomplished by including in the PCR reaction an oligonucleotide probe that anneals specifically between the forward and reverse PCR primers, and contains two fluorescent dyes. A reporter dye (e.g., FAM or JOE, obtained from either PE-Applied Biosystems, Foster City, Calif., Operon Technologies Inc., Alameda, Calif. or Integrated DNA Technologies Inc., Coralville, Iowa) is attached to the 5′ end of the probe and a quencher dye (e.g., TAMRA, obtained from either PE-Applied Biosystems, Foster City, Calif., Operon Technologies Inc., Alameda, Calif. or Integrated DNA Technologies Inc., Coralville, Iowa) is attached to the 3′ end of the probe. When the probe and dyes are intact, reporter dye emission is quenched by the proximity of the 3′ quencher dye. […]
(In general: Quantitative PCR measures a nucleic acid by following its amplification.)
Consider “272319 (antisense eA*eT*eT*eT*eT*d[5mC]*d[5mC]*dT*dT*d[5mC]*d[5mC]*dT*dT*dG*dA*eG*eG*eA*eG*eA) [compound 272319]”, for which the “% INHIB” value was 67%.

On to “272320 (antisense eA*eG*eA*eT*eT*dG*dT*dG*dT*dT*d[5mC]*dA*d[5mC]*d[5mC]*dT*e[5mC]*e[5mC]*eT*e[5mC]*eT) [compound 272320]”, for which the “% INHIB” value was 70%.

Consider “272321 (antisense eA*eA*e[5mC]*e[5mC]*e[5mC]*dA*dA*dG*dA*dG*dT*d[5mC]*dA*dT*d[5mC]*eA*e[5mC]*eT*eG*eT) [compound 272321]”, for which the “% INHIB” value was determined as 64%.

In the case of “272322 (antisense e[5mC]*eT*eG*eG*e[5mC]*dT*d[5mC]*dA*dT*d[5mC]*dA*dA*dT*dA*dT*e[5mC]*eT*eA*eG*e[5mC]) [compound 272322]”, the “% INHIB” value was found to be 84%.

As for “272323 (antisense eT*eG*eT*eG*eT*d[5mC]*dT*dG*dA*dT*dT*d[5mC]*d[5mC]*dT*d[5mC]*eA*eG*eT*e[5mC]*eT) [compound 272323]”, the “% INHIB” value is recorded as 67%.

For the substance “272324 (antisense eT*eA*eT*eG*eT*d[5mC]*dA*dT*dT*dG*dG*d[5mC]*dA*dT*dT*eG*eA*eA*eA*eT) [compound 272324]”, the “% INHIB” value was 53%.

Regarding “272325 (antisense eA*eA*eG*eG*e[5mC]*dA*dT*dA*dA*dG*dA*dG*dA*dT*d[5mC]*eT*eG*e[5mC]*eT*eT) [compound 272325]”, the “% INHIB” value stood at 66%.

As for “272326 (antisense eA*e[5mC]*eT*e[5mC]*eA*dG*d[5mC]*dT*d[5mC]*d[5mC]*dT*dT*d[5mC]*dA*dG*eT*eA*eG*eG*eA) [compound 272326]”, the “% INHIB” value amounted to 77%.

As to “272327 (antisense eG*eG*eA*e[5mC]*eA*dT*d[5mC]*d[5mC]*d[5mC]*dT*dG*d[5mC]*d[5mC]*dT*dT*eA*eT*eT*e[5mC]*eT) [compound 272327]”, the “% INHIB” value amounted to 60%.

Regarding “272328 (antisense eG*eG*e[5mC]*eA*eT*dT*dG*dT*d[5mC]*d[5mC]*dA*dT*dA*dA*dG*eG*eA*eA*eG*eT) [compound 272328]”, the “% INHIB” value amounted to 85%.

Take “272329 (antisense eA*e[5mC]*eT*eT*eT*dT*dT*dG*dG*d[5mC]*dA*dT*d[5mC]*dT*dG*e[5mC]*e[5mC]*eT*e[5mC]*eA) [compound 272329]”: the “% INHIB” value stood at 63%.

In the case of “272330 (antisense eG*eA*eT*eG*e[5mC]*dA*d[5mC]*dT*dT*dT*dT*dT*dG*dG*d[5mC]*eA*eT*e[5mC]*eT*eG) [compound 272330]”, the “% INHIB” value amounted to 47%.

As to “272331 (antisense e[5mC]*eA*eG*eT*e[5mC]*dG*d[5mC]*dA*dT*dT*dG*dA*dG*dT*dA*eT*eG*eA*eG*eG) [compound 272331]”, the “% INHIB” value came out at 67%.

For the substance “272332 (antisense e[5mC]*eT*e[5mC]*eT*eT*dT*dG*dT*d[5mC]*dA*dG*dG*d[5mC]*dA*dA*eG*eG*eG*e[5mC]*eA) [compound 272332]”, the “% INHIB” value turned out to be 75%.

Take “272333 (antisense eG*eT*eG*e[5mC]*eT*d[5mC]*dA*d[5mC]*dA*dT*dA*dG*d[5mC]*d[5mC]*dA*e[5mC]*eA*eT*eG*eA) [compound 272333]”: the “% INHIB” value came to 72%.

In the case of “272334 (antisense eA*eA*eG*eA*eA*dA*dG*dG*d[5mC]*dT*dA*dA*dG*dG*d[5mC]*eA*eT*eG*eA*eT) [compound 272334]”, the “% INHIB” value was 61%.

Take “272335 (antisense eA*eA*eA*eT*eA*d[5mC]*dG*dT*dA*dG*d[5mC]*dT*d[5mC]*dT*dT*eG*eG*eG*eA*eA) [compound 272335]”: the “% INHIB” value is 47%.

For “272336 (antisense e[5mC]*eA*eA*eT*e[5mC]*dA*d[5mC]*dT*dG*d[5mC]*dT*dA*d[5mC]*dT*dA*eA*eA*e[5mC]*eA*eG) [compound 272336]”, the “% INHIB” value is on record as 69%.

In the case of “272337 (antisense eA*eA*eA*e[5mC]*eA*dT*dA*dG*d[5mC]*d[5mC]*dA*dT*dT*d[5mC]*dA*eA*eT*eG*e[5mC]*eT) [compound 272337]”, the “% INHIB” value was 39%.

Take “272338 (antisense eG*eT*eG*e[5mC]*eT*dA*dT*dG*dG*dT*dT*dT*dG*d[5mC]*dA*eT*eT*e[5mC]*eA*eA) [compound 272338]”: the “% INHIB” value is 78%.

On to “272339 (antisense eG*eT*eT*eT*eT*dA*d[5mC]*dA*dT*dA*dT*d[5mC]*d[5mC]*dA*dA*eA*e[5mC]*eT*eA*eT) [compound 272339]”, for which the “% INHIB” value is on record as 72%.

As to “272340 (antisense e[5mC]*eA*eT*e[5mC]*eA*dA*d[5mC]*d[5mC]*dA*dA*dG*dA*dT*dT*dT*eG*eG*eT*eG*eA) [compound 272340]”, the “% INHIB” value was 69%.

For “272341 (antisense eG*eA*eG*eG*e[5mC]*dT*dA*dT*dA*dG*dA*dT*d[5mC]*dT*dT*eA*eT*e[5mC]*eT*e[5mC]) [compound 272341]”, the “% INHIB” value is 65%.

Turning to “272342 (antisense eT*eA*eG*eT*eG*dA*dG*dA*dA*dA*dG*dA*dA*dA*dG*eT*eT*eT*e[5mC]*eT) [compound 272342]”, the “% INHIB” value is recorded as 45%.

In the case of “272343 (antisense eA*eA*eT*eG*e[5mC]*dT*d[5mC]*dT*d[5mC]*dA*dA*dG*dA*dA*dT*eG*eA*eT*eG*eT) [compound 272343]”, the “% INHIB” value was 48%.

“272344 (antisense eA*e[5mC]*eA*e[5mC]*eT*d[5mC]*dA*dA*dT*dT*d[5mC]*dT*dA*dG*d[5mC]*eT*eT*eT*eT*e[5mC]) [compound 272344]”: the “% INHIB” value came to 60%.

“272345 (antisense e[5mC]*eA*eT*e[5mC]*eT*dA*dT*dT*dA*d[5mC]*dA*dA*dA*dT*dA*eA*e[5mC]*eA*eT*eG) [compound 272345]”: the “% INHIB” value is 24%.

For the substance “272346 (antisense e[5mC]*eT*e[5mC]*eT*eT*dG*dG*dA*dG*dA*dA*dA*dA*d[5mC]*d[5mC]*eA*eT*eA*eG*e[5mC]) [compound 272346]”, the “% INHIB” value was found to be 67%.

For the substance “272347 (antisense eT*e[5mC]*eT*eA*e[5mC]*dA*d[5mC]*dT*dG*dA*dT*dG*dA*dT*dA*e[5mC]*eT*eT*eT*eA) [compound 272347]”, the “% INHIB” value came out at 62%.

Consider “272348 (antisense e[5mC]*eA*e[5mC]*eA*eG*d[5mC]*dT*dT*dT*dG*dA*dA*dT*dT*dG*eA*eA*eT*eT*eA) [compound 272348]”, for which the “% INHIB” value came to 57%.

Take “272349 (antisense eA*eG*eT*e[5mC]*eT*dT*d[5mC]*d[5mC]*dA*dA*dA*d[5mC]*dA*d[5mC]*dA*e[5mC]*eA*eG*e[5mC]*eT) [compound 272349]”: the “% INHIB” value was 68%.

Consider “272350 (antisense eA*eG*eG*e[5mC]*eT*dG*dT*dT*dG*dT*dG*dA*dA*dA*dT*eA*eG*eT*eA*eA) [compound 272350]”, for which the “% INHIB” value is 67%.

Take “272351 (antisense eA*eT*eA*eG*eA*dA*dA*dT*dG*dT*dT*dG*dT*d[5mC]*dA*eG*eG*e[5mC]*eT*eG) [compound 272351]”: the “% INHIB” value stood at 57%.

For “272352 (antisense e[5mC]*e[5mC]*eA*eA*eA*dA*dT*dG*dA*d[5mC]*dA*dT*dT*d[5mC]*dT*eG*eA*eG*eA*e[5mC]) [compound 272352]”, the “% INHIB” value turned out to be 77%.

Take “272353 (antisense eA*eT*eA*eA*eT*dG*dG*d[5mC]*dT*dT*dA*dT*dG*dT*dG*eG*e[5mC]*e[5mC]*eA*e[5mC]) [compound 272353]”: the “% INHIB” value was found to be 72%.

As for “272354 (antisense eA*eG*eT*eT*eA*dT*dG*dT*dG*dA*d[5mC]*d[5mC]*d[5mC]*dT*dG*eA*eT*eT*eG*eA) [compound 272354]”, the “% INHIB” value is 65%.
